Measured values as given in US20240216366A1, “PHARMACEUTICAL COMPOSITION COMPRISING A DIPHENYLPYRAZINE DERIVATIVE” (ACTELION PHARMACEUTICALS LTD, priority 2021, published 2024).
Structures can show the parent of a compound that is named as a salt.

Experiments:
[1] = Feasibility pK rat study of aqueous micro-suspensions (LAI feasibility); format: in vivo; details: IM, 50 mg/kg; for long-acting release profile: 125 mg/mL micro-suspension pH 5
Protocol: For this study, aqueous micro-suspensions of Selexipag, {4-[(5,6-diphenylpyrazin-2-yl)(propan-2-yl)amino]butoxy}acetic acid and calcium; {4-[(5,6-diphenylpyrazin-2-yl)(propan-2-yl)amino]butoxy}acetate were prepared. An overview of the design of the study can be found in Table 1.
Release profiles and mean AUC of the different formulations are depicted in FIG. 1.

[2] = Assay/purity of gamma-irradiated drug product (UPLC); format: physicochemical; details: gamma-irradiation 40 and 60 kGy
From the text: For this reason, both gamma-irradiation and autoclavation (steam sterilization) of the final drug product need to be investigated. To evaluate the chemical stability of the final drug product during gamma-irradiation, 2 different concepts with calcium; {4-[(5,6-diphenylpyrazin-2-yl)(propan-2-yl)amino]butoxy}acetate having a particle size Dv50 of 8 micrometer were subjected to an irradiation grade of 40 kGy and 60 kGy.
Analytical Method used: The assay and the impurities of the gamma irradiated and non-gamma irradiated (ref) calcium salt of selexipag metabolite suspension (formulation) were analysed using reversed phase chromatography. Sample preparation was done by weighing 0.5 mL suspension in a 500 mL flask. Approximately 200 mL pH7 phosphate buffer:ACN (50:50) was added whereafter the flask was shaken mechanically for at least 30 minutes until complete dissolution. Dilute to volume with pH7 phosphate buffer:ACN (50:50). The resulting solution was diluted 5× by pipetting 5 mL into a 25 mL flask and diluting with the same dilution solvent. […]
Analysis was performed using a Waters UPLC H-Class equipped with DAD detector, column manager and auto-sampler. […] The assay value of the sample is calculated according following formula: […]
The concentration of an impurity is calculated according following formula: […]

[3] = Assay/purity of gamma-irradiated drug substance (UPLC); format: physicochemical
Protocol: To evaluate if gamma-irradiation could be used to produce sterile product, different irradiation grades were tested on calcium; {4-[(5,6-diphenylpyrazin-2-yl)(propan-2-yl)amino]butoxy}acetate. In this study, calcium; {4-[(5,6-diphenylpyrazin-2-yl)(propan-2-yl)amino]butoxy}acetate (“COMPOUND”) was irradiated with three different grades (i.e. 5, 25 and 40 kGy). Each irradiation grade was applied on two different COMPOUND vials. One of the two vials for each grade was flushed with nitrogen for 10 seconds. One reference vial containing non-irradiated COMPOUND was included in the assay/purity analysis. All samples were analyzed immediately after irradiation (Table 15) and re-analyzed after 3 months of storage at room temperature.
A second study was conducted on calcium: {4-[(5,6-diphenylpyrazin-2-yl)(propan-2-yl)amino]butoxy}acetate where three different irradiation grades were applied (i.e 5, 25 and 40 kGy).
Analytical Method used: The assay and the impurities of calcium salt of selexipag metabolite before (ref) and after gamma irradiation were analysed using reversed phase chromatography. Sample preparation was done by weighing 50 mg of sample in a 500 mL flask. Approximately 100 mL pH7 phosphate buffer:ACN (50:50) was added whereafter the flask was shaken mechanically for at least 30 minutes until complete dissolution. Dilute to volume with pH7 phosphate buffer:ACN (50:50). The resulting solution was diluted 5× by pipetting 5 mL into a 25 mL flask and diluting with the same dilution solvent. The reference solution is made following the same sample preparation, but using calcium salt of selexipag metabolite (“API”).
Analysis was performed using a Waters UPLC H-Class equipped with DAD detector, column manager and auto-sampler. Separation was done on a Acquity UPLC BEH C18 (2.1×150 mm, 1.7 μm) analytical column using a column temperature of 60° C. DAD detector was set on 230 nm. A 10 mM NH4Ac:ACN:MeOH (950:38:12) solution was used as mobile phase A. A 10 mM NH4Ac:ACN:MeOH (50:710:240) solution was used as mobile phase B. A linear gradient program of 26 minutes was applied starting in which the mobile phase B increases from 5% to 100% in 20 minutes. Hereafter the concentration of mobile phase B was brought back to 5% in 1 minute followed by an equilibration time of 5 minutes. The applied flow rate is 0.30 mL/min. An injection volume of 7 μL was used for the analysis. The assay value of the sample is calculated according following formula:
%=[API peak responsesample×concref×purityref×100%]/[peak responseref×concsample]
The concentration of an impurity is calculated according following formula:
%=[Impurity peak responsesample×concref×purityref×100%]/[peak responseref×concsample]

[4] = Assay/purity of drug product after autoclavation (steam sterilization); format: physicochemical
Protocol: In parallel with gamma-irradiation of the final drug product (formulated calcium; {4-[(5,6-diphenylpyrazin-2-yl)(propan-2-yl)amino]butoxy}acetate having a particle size Dv50 of 8 micrometer), autoclavation (steam sterilization) was evaluated as well.
Not only the effect upon chemical stability, but upon resuspendability was evaluated as well for the process of autoclavation (steam sterilization). The tested samples of experiment 142 were evaluated for resuspendability right after autoclavation (T0) and after 14 days of storage at 5° C. Time needed for resuspendability was acceptable at both timepoints.

[5] = system: patients with pulmonary arterial hypertension; details: phase III clinical trial, versus placebo; cited from earlier work
[6] = 5 kGy, 3 months at room temperature
[7] = 5 kGy, 3 months at room temperature, flushed with N2
[8] = 25 kGy, 3 months at room temperature
[9] = 25 kGy, 3 months at room temperature, flushed with N2
[10] = 40 kGy, 3 months at room temperature
[11] = 40 kGy, 3 months at room temperature, flushed with N2
[12] = Reference (non-irradiated), 3 months at room temperature

## CC(C)N(CCCCOCC(=O)O)c1cnc(-c2ccccc2)c(-c2ccccc2)n1 [ACT-333679, 2-(4-((5,6-diphenylpyrazin-2-yl)(isopropyl)amino)butoxy)acetic acid, reference compound]
[1]
  long-acting release profile: did not demonstrate a long-acting release profile

## CC(C)N(CCCCOCC(=O)O)c1cnc(-c2ccccc2)c(-c2ccccc2)n1 [Ca-salt of ACT-333679, calcium; {4-[(5,6-diphenylpyrazin-2-yl)(propan-2-yl)amino]butoxy}acetate]
[1]; 125 mg/mL micro-suspension
  AUC increases up until: ≤ 720 h
  long-acting release profile up to: up to 336 hours
[1]; 125 mg/mL micro-suspension, FIG. 1
  plasma concentrations: significant lower plasma concentrations compared to both other groups
[2]
  chemical stability in the drug product: acceptable
[3]; [6]
  Assay, % COMPOUND: 94.0%
  Impurity, % RRT 1.16*: <0.05%
  Impurity, % RRT 1.32*: 0.06%
  Impurity, % RRT 1.34*: <0.05%
[3]; [7]
  Assay, % COMPOUND: 94.1%
  Impurity, % RRT 1.16*: <0.05%
  Impurity, % RRT 1.32*: 0.06%
  Impurity, % RRT 1.34*: <0.05%
[3]; 5 kGy, T0
  Assay, % COMPOUND: 95.3%
  Impurity, % RRT 1.16*: 0.05%
  Impurity, % RRT 1.32*: <0.05%
  Impurity, % RRT 1.34*: 0.09%
[3]; 5 kGy, T0, flushed with N2
  Assay, % COMPOUND: 94.6%
  Impurity, % RRT 1.16*: 0.05%
  Impurity, % RRT 1.32*: <0.05%
  Impurity, % RRT 1.34*: 0.06%
[3]; [8]
  Assay, % COMPOUND: 94.2%
  Impurity, % RRT 1.16*: 0.07%
  Impurity, % RRT 1.32*: 0.12%
  Impurity, % RRT 1.34*: 0.06%
[3]; [9]
  Assay, % COMPOUND: 93.6%
  Impurity, % RRT 1.16*: <0.05%
  Impurity, % RRT 1.32*: 0.05%
  Impurity, % RRT 1.34*: 0.08%
[3]; 25 kGy, T0
  Assay, % COMPOUND: 95.1%
  Impurity, % RRT 1.16*: 0.10%
  Impurity, % RRT 1.32*: 0.11%
  Impurity, % RRT 1.34*: 0.06%
[3]; 25 kGy, T0, flushed with N2
  Assay, % COMPOUND: 95.6%
  Impurity, % RRT 1.16*: <0.05%
  Impurity, % RRT 1.32*: 0.13%
  Impurity, % RRT 1.34*: 0.09%
[3]; [10]
  Assay, % COMPOUND: 94.3%
  Impurity, % RRT 1.16*: 0.08%
  Impurity, % RRT 1.32*: 0.15%
  Impurity, % RRT 1.34*: 0.10%
[3]; [11]
  Assay, % COMPOUND: 92.9%
  Impurity, % RRT 1.16*: 0.08%
  Impurity, % RRT 1.32*: 0.14%
  Impurity, % RRT 1.34*: 0.10%
[3]; 40 kGy, T0
  Assay, % COMPOUND: 94.3%
  Impurity, % RRT 1.16*: 0.13%
  Impurity, % RRT 1.32*: 0.14%
  Impurity, % RRT 1.34*: 0.06%
[3]; 40 kGy, T0, flushed with N2
  Assay, % COMPOUND: 94.5%
  Impurity, % RRT 1.16*: 0.12%
  Impurity, % RRT 1.32*: 0.15%
  Impurity, % RRT 1.34*: 0.07%
[3]; [12]
  Assay, % COMPOUND: 94.4%
  Impurity, % RRT 1.16*: <0.05%
  Impurity, % RRT 1.32*: <0.05%
  Impurity, % RRT 1.34*: <0.05%
[3]; Reference (non-irradiated), T0
  Assay, % COMPOUND: 95.3%
  Impurity, % RRT 1.16*: <0.05%
  Impurity, % RRT 1.32*: <0.05%
  Impurity, % RRT 1.34*: 0.09%
[3]; drug substance, gamma-irradiation 5, 25, 40 kGy
  chemical stability: acceptable
[3]; second study, 5 kGy
  Assay, % COMPOUND: 104.4%
  Impurity, % RRT 1.15*: <0.05%
  Impurity, % RRT 1.16*: <0.05%
  Impurity, % RRT 1.32*: <0.05%
[3]; second study, 25 kGy
  Assay, % COMPOUND: 104.3%
  Impurity, % RRT 1.15*: 0.06%
  Impurity, % RRT 1.16*: 0.09%
  Impurity, % RRT 1.32*: 0.07%
[3]; second study, 40 kGy
  Assay, % COMPOUND: 103.7%
  Impurity, % RRT 1.15*: 0.06%
  Impurity, % RRT 1.16*: 0.12%
  Impurity, % RRT 1.32*: 0.10%
[4]
  chemical stability in the drug product: chemically stable

## CC(C)N(CCCCOCC(=O)NS(C)(=O)=O)c1cnc(-c2ccccc2)c(-c2ccccc2)n1 [Selexipag, 2-{4-[(5,6-diphenylpyrazin-2-yl)(propan-2-yl)amino]butoxy}-N-(methanesulfonyl)acetamide, reference compound]
[1]
  long-acting release profile: did not demonstrate a long-acting release profile
[5]
  risk of the primary composite end point of death or a complication related to pulmonary arterial hypertension: significantly lower
